# ChEMBL document CHEMBL3763096, “8-Halo-substituted naphtho[2,3-b]thiophene-4,9-diones as redox-active inhibitors of keratinocyte hyperproliferation with reduced membrane-damaging properties” (Eur J Med Chem, 2016)
# Activity calls are given as the source filed them. The rule behind the calls is not given here.
# Experiments:
# HaCaT [1] = test: Antihyperproliferative activity against human HaCaT cells after 48 hrs by phase contrast microscopic analysis; format: functional, cell-based
# HaCaT [2] = test: Cytotoxicity against human HaCaT cells assessed as LDH level at 2 uM incubated for 4 hrs; format: cell-based
# HaCaT [3] = test: Increase in superoxide generation in human HaCaT cells at 5 uM incubated for 18 hrs by DHE-based flow cytometric analysis; format: functional, cell-based
# HaCaT [4] = test: Increase in superoxide generation in human HaCaT cells at 5 uM incubated for 18 hrs pretreated with 5 umol/L NQO1 inhibitor dicoumarol for 25 mins followed by compound addition by DHE-based flow cytometric analysis; format: functional, cell-based
# [5] = molecular target: T1, NADPH--cytochrome P450 reductase (Homo sapiens, UniProt P16435); test: Activity at human recombinant CPR assessed as superoxide generation at 100 umol/ml by spectrophotometric assay
# T1 sequence (P16435 whole entry): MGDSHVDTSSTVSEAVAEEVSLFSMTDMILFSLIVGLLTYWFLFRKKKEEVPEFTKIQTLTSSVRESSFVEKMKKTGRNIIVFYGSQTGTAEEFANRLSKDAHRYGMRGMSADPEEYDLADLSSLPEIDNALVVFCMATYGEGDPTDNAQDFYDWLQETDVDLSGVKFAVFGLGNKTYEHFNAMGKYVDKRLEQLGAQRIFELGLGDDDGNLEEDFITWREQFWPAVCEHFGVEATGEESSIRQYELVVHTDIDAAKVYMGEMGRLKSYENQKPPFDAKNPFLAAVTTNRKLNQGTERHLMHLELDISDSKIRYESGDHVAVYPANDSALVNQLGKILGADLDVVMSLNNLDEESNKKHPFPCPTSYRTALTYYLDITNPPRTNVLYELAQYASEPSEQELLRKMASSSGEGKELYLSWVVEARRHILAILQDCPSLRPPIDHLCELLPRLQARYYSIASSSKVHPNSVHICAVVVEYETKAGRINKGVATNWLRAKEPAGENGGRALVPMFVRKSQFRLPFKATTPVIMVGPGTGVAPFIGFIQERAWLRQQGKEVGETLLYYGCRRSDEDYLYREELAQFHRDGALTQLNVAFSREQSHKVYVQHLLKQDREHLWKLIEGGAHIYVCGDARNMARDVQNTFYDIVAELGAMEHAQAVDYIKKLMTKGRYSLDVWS
# [6] = molecular target: NAD(P)H dehydrogenase [quinone] 1 (Homo sapiens) (UniProt P15559); test: Activity at human recombinant NQO1 assessed as superoxide generation at 25 umol/ml by spectrophotometric assay
# NAD(P)H dehydrogenase [quinone] 1 (Homo sapiens), sequence (P15559 whole entry): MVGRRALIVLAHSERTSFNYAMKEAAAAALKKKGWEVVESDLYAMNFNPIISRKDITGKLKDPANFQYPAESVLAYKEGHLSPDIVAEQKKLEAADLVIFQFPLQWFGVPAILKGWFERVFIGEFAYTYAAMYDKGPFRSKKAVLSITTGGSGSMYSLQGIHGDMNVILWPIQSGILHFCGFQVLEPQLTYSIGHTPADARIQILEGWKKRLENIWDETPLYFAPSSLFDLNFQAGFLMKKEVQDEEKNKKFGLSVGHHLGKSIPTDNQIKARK
SMILES,IC50 (HaCaT [1]) [nM],Activity (HaCaT [2]) [mU/ml],other results
O=C(Nc1ccccc1)c1cc2c(s1)C(=O)c1c(Cl)cccc1C2=O,> 30000,121,–
O=Cc1cc2c(s1)C(=O)c1c(Br)cccc1C2=O,3820,–,–
CC(=O)c1cc2c(s1)C(=O)c1c(O)cccc1C2=O,–,319,Activity (HaCaT [3]): Active; Activity (HaCaT [4]): Active; Activity [5]: Active
CCOC(=O)c1cc2c(s1)C(=O)c1c(Br)cccc1C2=O,1720,121,–
CCOC(=O)c1cc2c(s1)C(=O)c1c(Cl)cccc1C2=O,1220,97,–
CC(=O)c1cc2c(s1)C(=O)c1c(Cl)cccc1C2=O,–,124,Activity (HaCaT [3]): Active; Activity (HaCaT [4]): Active; Activity [5]: Active
CCC(=O)c1cc2c(s1)C(=O)c1c(Cl)cccc1C2=O,2750,116,–
O=C(c1cccnc1)c1cc2c(s1)C(=O)c1c(Br)cccc1C2=O,8630,–,–
O=Cc1cc2c(s1)C(=O)c1c(Cl)cccc1C2=O,4700,107,–
CC(=O)c1cc2c(s1)C(=O)c1ccccc1C2=O,–,253,–
O=C(O)c1cc2c(s1)C(=O)c1c(Br)cccc1C2=O,> 30000,108,–
O=C(c1cccs1)c1cc2c(s1)C(=O)c1c(Br)cccc1C2=O,11900,107,–
O=C(O)c1cc2c(s1)C(=O)c1c(Cl)cccc1C2=O,> 30000,112,–
O=C1c2ccsc2C(=O)c2c1cccc2C(F)(F)F,4850,–,–
O=C1c2cc(-c3nnn[nH]3)sc2C(=O)c2c(Cl)cccc21,> 30000,95,–
CCc1noc(-c2cc3c(s2)C(=O)c2c(Cl)cccc2C3=O)n1,590,121,Activity (HaCaT [3]): Active; Activity (HaCaT [4]): Active; Activity [6]: inactive; Activity [5]: Active
O=C1c2ccsc2C(=O)c2c(Cl)cccc21,–,–,Activity (HaCaT [3]): Active; Activity (HaCaT [4]): Active; Activity [6]: inactive; Activity [5]: Active
CCC(=O)c1cc2c(s1)C(=O)c1c(Br)cccc1C2=O,2910,113,–

SMILES,IC50 (HaCaT [1]) [nM],Activity (HaCaT [2]) [mU/ml],other results
O=C(c1cccnc1)c1cc2c(s1)C(=O)c1c(Cl)cccc1C2=O,570,125,–
O=C1c2ccsc2C(=O)c2c(F)cccc21,8500,–,–
CCNC(=O)c1cc2c(s1)C(=O)c1c(Cl)cccc1C2=O,1050,109,–
O=C(Oc1ccccc1)c1cc2c(s1)C(=O)c1c(Cl)cccc1C2=O,10500,97,–
O=C1c2ccsc2C(=O)c2c(O)cccc21,–,–,Activity (HaCaT [3]): Active; Activity (HaCaT [4]): Active; Activity [5]: Active
O=C1c2ccsc2C(=O)c2c(Br)cccc21,14800,–,–
CC1=CC(=O)c2ccccc2C1=O [MENADIONE],–,–,Activity [5]: Active
O=C(c1ccccc1)c1cc2c(s1)C(=O)c1c(Br)cccc1C2=O,13200,121,–
O=C(c1ccccc1)c1cc2c(s1)C(=O)c1c(Cl)cccc1C2=O,1770,122,–
O=C(Oc1ccccc1)c1cc2c(s1)C(=O)c1c(Br)cccc1C2=O,6640,–,–
O=C(c1cccs1)c1cc2c(s1)C(=O)c1c(Cl)cccc1C2=O,1540,127,–
O=C1c2ccsc2C(=O)c2c(I)cccc21,> 30000,–,–
COC(=O)c1cc2c(s1)C(=O)c1c(Cl)cccc1C2=O,900,130,–
CCc1noc(-c2cc3c(s2)C(=O)c2c(O)cccc2C3=O)n1,–,–,Activity (HaCaT [3]): Active; Activity (HaCaT [4]): Active; Activity [5]: Active
CCN(CC)C(=O)c1cc2c(s1)C(=O)c1c(Cl)cccc1C2=O,720,112,–
COC(=O)c1cc2c(s1)C(=O)c1c(Br)cccc1C2=O,2200,124,–
CC(=O)c1cc2c(s1)C(=O)c1c(Br)cccc1C2=O,1500,116,–
